In ChEMBL document CHEMBL1147314, “A pentacyclic triterpene with anti-inflammatory and analgesic activity from the roots of Commiphora merkeri” (1989):

Columns and labels:
Rattus norvegicus [1] = experiment: Analgesic activity in rat assessed as inhibition of writhing at 100 mg/kg; type: functional
Rattus norvegicus [2] = experiment: Antiinflammatory activity in rat assessed as inhibition of carrageenan-induced edema at 100 mg/kg; type: functional

Structure (SMILES) | inhibition in vivo at 100 mg/kg (Rattus norvegicus [1]) [%] | inhibition in vivo at 100 mg/kg (Rattus norvegicus [2]) [%]
CC1(C)CC[C@]2(C)CC[C@]3(C)C(=CC[C@@H]4[C@@]5(C)C[C@@H](O)[C@H](O)[C@@](C)(CO)[C@@H]5CC[C@]43C)[C@@H]2C1 | 37 | 28
CC(=O)Oc1ccccc1C(=O)O [ASPIRIN] | 85 | 
CCCCC1C(=O)N(c2ccccc2)N(c2ccccc2)C1=O [PHENYLBUTAZONE] |  | 64
